Among the data in US7468150B2, “Synthesis of conducto-magnetic polymers as nano-transducers in biosensor design” (Board of Trustees of Michigan State University, priority 2005, dated 2008) are Conductivity, Degradability and Solubility values, retold here.

Converted amounts (≈) assume the structure as drawn.

Common to all, as to assay type: physicochemical
The nature of series [1]: Conductivities of polymers and nanocomposites in solution (Acorn TDS 5 Meter). Particulars: solvent as given in the compound name. As for the experimental part: In order to characterize […] and related compounds, several methods were utilized. First, the DC SQUID (Superconducting Quantum Interference Device) magnetometer was used to measure magnetization of solid […] after 3 weeks and the […] base (control). Absorbance checks using spectrophotometer were performed on […] in solution. Conductivities in solution of […] were gauged by Acorn® TDS 5 Meter. […] To create β-carotene nanocomposites, the use of an appropriate solvent was crucial. […] Solutions of β-carotene nanocomposites were characterized by absorbance checks and conductivity measurements. […] Mixtures of β-carotene […] various other PANi-derived polymers are attained forming a variety of other composites.

The nature of series [2]: Degradability of β-carotene in toluene by absorbance over time. As to conditions: absorbance graphs over several days. As for the experimental part: (§1) β-carotene nanocomposites: To create β-carotene nanocomposites, the use of an appropriate solvent was crucial. Acetone, toluene, kwik-dri, and tetrahydrofuran (THF) were tested. The solubility of β-carotene in kwik-dri, a non-aromatic industrial solvent similar to toluene, was crudely determined. Solutions of β-carotene nanocomposites were characterized by absorbance checks and conductivity measurements. […] Mixtures of β-carotene with PANi emeraldine salt and various other PANi-derived polymers are attained forming a variety of other composites.

A short description of series [3]: Solubility of β-carotene in kwik-dri. Particulars: crudely determined. The protocol: as §1

The term Solubility denotes the concentration that dissolves in the medium under given conditions. Low readings indicate little dissolved substance, high ones much dissolved substance. Regarding `CC1=C(/C=C/C(C)=C/C=C/C(C)=C/C=C/C=C(C)/C=C/C=C(C)/C=C/C2=C(C)CCCC2(C)C)C(C)(C)CCC1` [β-carotene], the Conductivity in series [1] is recorded as roughly 0 μS; in series [1] (listed as Kwik-dri + β-carotene), 0.15 μS; in series [1] (listed as THF + β-carotene), roughly 0 μS. Moreover, the Degradability entry in series [2] is recorded as “degradability in toluene was demonstrated”. Moreover, the Solubility in series [3] was 500 µg/mL (≈ 931 µM).
